Source: US5599825A, “Water-soluble methine compound and pharmaceutical composition for treatment of cancer comprising the same” (Fuji Photo Film Co., Ltd., priority 1994, dated 1997)

What was measured:
[1] = Solubility test 2: 5 mg in 0.5 ml ion-exchanged water, macroscopic (10 mg/ml); assay type: physicochemical; settings: room temperature, 5 minutes shaking
Method: (§1) The solubility tests were conducted by the following methods of tests 1 and 2:
5 mg of a methine compound is fed into a test tube, to which 0.5 ml of ion-exchanged water is added, the resultant mixture is shaken at room temperature for 5 minutes, and the solubility thereof is macroscopically confirmed (10 mg/ml solution).

[2] = tested on: human colonic epithelial carcinoma LS174T; assay: Activity against human colonic epithelial carcinoma LS174T in nude mouse (tumor inhibition); assay type: in vivo, human (transplanted in BALB/C nu/nu mice); settings: i.v.; 20 mg/kg days 1, 3, 7, 11, 16, 18; 25 mg/kg day 9
Method: Activity of the present pharmaceutical compositions against human colonic epithelial carcinoma LS174T was determined by use of nude mouse as follows:
As the human colonic epithelial carcinoma cell lines LS174T, there was used the established line by trypsinizing piece of LS174T obtained from the operating theatre of the original adenocarcinoma of colon in such that the piece becomes suitable for cultivation. When this cultured cells LS174T are hypodermically injected to a nude mouse, the cells can be easily grown in the body of the nude mouse as a moderately to sufficiently differentiated human colonic epithelial carcinoma. The cells LS174T produce CEA in high level and can proliferate in hamster cheek pouches or immunodeprived mice, so that it has been proven that the cells LS174T have neoplastic properties.
BALB/C nu/nu mice (male, five weeks age) available from Charles River Japan Inc. were placed in an atmosphere having no pathogen. Tumors formed by the hypodermic injection of human colonic epithelial carcinoma cell lines LS174T into the mice were cut off under the aseptic condition, and the surrounding skin and connective tissue of the tumor tissues as well as the necrotic tissue located in the center of the tumor tissues were removed. The tumor tissues were Cut in the form of 3-5 mm square, and the resulting one tissue was charged into a needle for transplantation to hypodermically transplant it into the mouse. The resulting mice were randomly divided into control group (six mice) and treating group (six mice). The intravenous administration of the pharmaceutical composition into the treating group started next day. The amount and schedule of the administration were determined based on the experience, mainly the knowledge from the pretoxic-test data of LD 50 and LD 10.5% glucose solution or physiologic saline for injection was injected to the control group in the same amount as that to be intravenously injected to the treating group.
The pharmaceutical composition was dissolved in 5% glucose solution or physiologic saline for injection in such that the amount of the pharmaceutical composition contained in the glucose solution or physiologic saline is 5 ml per one kg of weight of the mouse to be injected so as to prepare an injection liquid. When the proliferation of tumor in the control group reached exponential growth phase and the size of the tumor became detectable by touch with hand, i.e., generally three weeks after the transplantation, the experiment was stopped. Then the tumor of each mouse was cut off and the weight of the resulting tumor was measured by use of chemical balance. Regarding each group, tumor inhibition percentage between the treating group and control group was calculated.

[3] = tested on: LOX, a human melanoma cell line; assay: Nude mice bearing human melanoma LOX (survival); assay type: in vivo, human (in male athymic Swiss nu/nu mouse); settings: i.p.; 5 mg/kg day 1; 7.5 mg/kg days 2, 5; 10 mg/kg days 7, 9, 13, 15
Method: Nude Mice Bearing Human Melanoma as a Model System
LOX, a human melanoma cell line, grown subcutaneously in nude mice was excised, trypsinized to yield a single cell suspension using a metal grid with a […]. Red blood cells were lysed by incubation with 0.17 molar ammonium chloride at 4° C. for 20 minutes. Five million viable trypan blue negative cells made up in 0.1 ml of Dulbecco modified Eagles' medium (DME) were injected into the peritoneal cavity of a male athymic Swiss nu/nu mouse. The control group and each treatment group consisted of 5 to 10 mice. Treatment was commenced the following day by intraperitoneal injection.
Ten control mice received 0.25 ml of 2% dextrose on those days the treated groups were injected with the compounds of this invention. The compounds of the General Formulas (I) to (II) used in this invention which were tested are listed in Table 6 below and the results obtained are shown in Table 6 of the accompanying drawings. T/C is the ratio, expressed as a percentage of the mean survival age of the treated group to the mean survival age of the untreated control group.

[4] = Solubility in 5% glucose solution for injection, macroscopic (10 mg/ml); assay type: physicochemical; settings: room temperature, 5 minutes shaking
Method: The solubility of each of the compounds of the present invention synthesized in Example 1 in 5% glucose solution for injection was examined.
5 mg of a methine compound was fed into a test tube, to which 0.5 ml of 5% glucose solution for injection was added, the resultant mixture was shaken at room temperature for 5 minutes, and the solubility thereof was macroscopically confirmed (10 mg/ml solution).

[5] = Solubility test 1: 5 mg in 5 ml ion-exchanged water, macroscopic (1 mg/ml); assay type: physicochemical; settings: room temperature, 5 minutes shaking, 1 mg/ml
Method: as §1
5 mg of a methine compound is fed into a test tube, to which 5 ml of ion-exchanged water is added, the resultant mixture is shaken at room temperature for 5 minutes, and the solubility thereof is macroscopically confirmed (1 mg/ml solution).

CCn1c(=Cc2sc3ccccc3[n+]2CCOCCOCCOC)sc(=C2Sc3ccc(OC)cc3N2C)c1=O [Compound 1-13]
Solubility 10 mg/mL [1]: soluble | Tumor Inhibition Ratio [2]: 45.2% | T/C (mean survival age of treated group to untreated control group) [3]: 124% | Solubility 10 mg/mL [4]: soluble | Solubility 1 mg/mL [5]: soluble
